Source: ChEMBL document CHEMBL1144325, “Synthesis and monoamine transporter affinity of new 2beta-carbomethoxy-3beta-[4-(substituted thiophenyl)]phenyltropanes: discovery of a selective SERT antagonist with picomolar potency” (Bioorg Med Chem Lett, 2005)

Assays:
[1] = biological target: Sodium-dependent serotonin transporter (Rattus norvegicus, UniProt P31652); test: Displacement of [3H]paroxetine from serotonin transporter of rat cerebral cortex; format: tissue-based
[2] = biological target: Sodium-dependent dopamine transporter (Rattus norvegicus, UniProt P23977); test: Displacement of [3H]GBR-12935 from dopamine transporter of rat caudate-putamen; format: tissue-based
[3] = biological target: Monoamine transporters; serotonin & dopamine (Rattus norvegicus) (UniProt P31652+P23977); test: Selectivity for inhibition of serotonin and dopamine transporters; format: protein assay
[4] = biological target: Monoamine transporters; Norepinephrine & serotonin (Rattus norvegicus) (UniProt P31652+Q9WTR4); test: Selectivity for inhibition of serotonin and norepinephrine transporters; format: protein assay
[5] = biological target: Norepinephrine transporter (Rattus norvegicus, UniProt Q9WTR4); test: Displacement of [3H]nisoxetine from norepinephrine transporter of rat cerebral cortex; format: tissue-based
Norepinephrine transporter, sequence (Q9WTR4 whole entry): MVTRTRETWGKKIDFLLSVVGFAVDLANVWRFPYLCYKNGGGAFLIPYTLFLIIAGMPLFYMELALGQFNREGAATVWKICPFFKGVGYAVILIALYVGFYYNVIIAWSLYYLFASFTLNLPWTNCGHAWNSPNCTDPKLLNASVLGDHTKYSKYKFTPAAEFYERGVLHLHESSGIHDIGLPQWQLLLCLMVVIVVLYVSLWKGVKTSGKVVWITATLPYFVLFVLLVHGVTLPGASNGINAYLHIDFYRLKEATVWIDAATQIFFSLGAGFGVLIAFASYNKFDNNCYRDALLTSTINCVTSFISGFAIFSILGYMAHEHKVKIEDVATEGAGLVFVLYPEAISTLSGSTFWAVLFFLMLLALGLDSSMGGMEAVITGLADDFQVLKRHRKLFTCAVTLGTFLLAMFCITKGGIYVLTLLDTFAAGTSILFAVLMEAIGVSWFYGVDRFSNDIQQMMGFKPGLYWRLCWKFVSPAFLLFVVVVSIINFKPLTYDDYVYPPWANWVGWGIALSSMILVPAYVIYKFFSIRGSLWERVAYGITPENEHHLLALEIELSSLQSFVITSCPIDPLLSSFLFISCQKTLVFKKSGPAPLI

Sodium-dependent serotonin transporter, sequence (P31652 whole entry): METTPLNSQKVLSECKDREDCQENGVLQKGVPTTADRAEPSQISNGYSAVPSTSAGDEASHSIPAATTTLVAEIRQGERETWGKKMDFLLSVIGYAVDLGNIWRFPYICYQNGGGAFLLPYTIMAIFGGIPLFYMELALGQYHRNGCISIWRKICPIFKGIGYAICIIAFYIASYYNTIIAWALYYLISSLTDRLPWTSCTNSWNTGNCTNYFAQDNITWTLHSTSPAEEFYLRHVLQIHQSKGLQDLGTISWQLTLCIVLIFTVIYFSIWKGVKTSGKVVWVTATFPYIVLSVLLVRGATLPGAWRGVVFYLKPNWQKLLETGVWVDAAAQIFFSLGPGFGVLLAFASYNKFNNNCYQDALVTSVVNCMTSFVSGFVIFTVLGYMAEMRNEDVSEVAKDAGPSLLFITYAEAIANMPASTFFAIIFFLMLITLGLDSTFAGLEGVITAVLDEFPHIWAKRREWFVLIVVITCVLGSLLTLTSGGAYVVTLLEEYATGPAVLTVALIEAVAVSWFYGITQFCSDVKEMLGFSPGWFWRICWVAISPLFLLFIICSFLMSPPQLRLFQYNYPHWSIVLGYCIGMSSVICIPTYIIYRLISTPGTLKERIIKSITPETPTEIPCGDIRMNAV
Sodium-dependent dopamine transporter, sequence (P23977 whole entry): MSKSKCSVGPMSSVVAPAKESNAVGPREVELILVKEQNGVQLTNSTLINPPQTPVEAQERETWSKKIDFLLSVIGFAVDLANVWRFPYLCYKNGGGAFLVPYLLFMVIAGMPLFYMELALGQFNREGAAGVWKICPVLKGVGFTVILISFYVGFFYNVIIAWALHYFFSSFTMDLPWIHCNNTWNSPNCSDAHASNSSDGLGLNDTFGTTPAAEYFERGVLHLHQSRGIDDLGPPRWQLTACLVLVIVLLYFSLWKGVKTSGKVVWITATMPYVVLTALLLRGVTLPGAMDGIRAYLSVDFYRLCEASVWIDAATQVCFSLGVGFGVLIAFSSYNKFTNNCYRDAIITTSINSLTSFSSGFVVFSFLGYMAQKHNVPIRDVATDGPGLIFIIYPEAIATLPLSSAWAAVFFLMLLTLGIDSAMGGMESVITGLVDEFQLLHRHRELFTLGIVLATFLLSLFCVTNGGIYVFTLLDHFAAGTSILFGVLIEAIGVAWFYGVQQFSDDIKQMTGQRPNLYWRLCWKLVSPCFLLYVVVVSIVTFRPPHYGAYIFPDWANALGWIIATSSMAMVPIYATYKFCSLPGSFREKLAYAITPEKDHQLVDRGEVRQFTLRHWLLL
Monoamine transporters; serotonin & dopamine (Rattus norvegicus), sequence (P23977 whole entry, looked up): as the sequence (P23977 whole entry) above
Monoamine transporters; serotonin & dopamine (Rattus norvegicus), sequence (P31652 whole entry, looked up): as the sequence (P31652 whole entry) above

COC(=O)C1C(c2ccc(-c3cc([N+](=O)[O-])c([N+](=O)[O-])s3)cc2)CC2CCC1N2C (configuration not stated) was tested, and the Ki [1] was 5000 nM, the Ki [2] was greater than 30000 nM and the Ratio [3] was greater than 6. The Ratio [4] was greater than 2 and the Ki [5] was greater than 10000 nM.

Work on COC(=O)C1C(c2ccc(-c3ccc(N)s3)cc2)CC2CCC1N2C (configuration not stated) yielded a Ki [1] of 64.7 nM, a Ki [2] greater than 10000 nM and a Ratio [3] greater than 155. The Ratio [4] was greater than 464 and the Ki [5] was greater than 30000 nM.

Work on COC(=O)C1C(c2ccc(-c3cccs3)cc2)CC2CCC1N2C (configuration not stated) yielded a Ki [1] of 0.15 nM, a Ki [2] of 52 nM and a Ratio [3] of 346. It also gave a Ratio [4] of 1050 and a Ki [5] of 158 nM.

COC(=O)C1C(c2ccc(-c3cscc3Br)cc2)CC2CCC1N2C (configuration not stated) gave a Ki [1] of 4.02 nM, a Ki [2] of 183 nM and a Ratio [3] of 46. It also gave a Ratio [4] greater than 2490 and a Ki [5] greater than 10000 nM.

Work on COC(=O)C1C(c2ccc(-c3ccc(I)s3)cc2)CC2CCC1N2C (configuration not stated) yielded a Ki [1] of 4.56 nM, a Ki [2] of 22.1 nM and a Ratio [3] of 4.9. The Ratio [4] was 249 and the Ki [5] was 1140 nM.

Compound COC(=O)C1C2CCC(CC1c1ccc(-c3ccsc3)cc1)N2 (configuration not stated) has a Ki [1] of 0.23 nM, a Ki [2] of 6.4 nM and a Ratio [3] of 28. For the same compound, the Ratio [4] was 170 and the Ki [5] was 39 nM.

With COC(=O)C1C(c2ccc(-c3ccsc3)cc2)CC2CCC1N2C (configuration not stated) the Ki [1] was 0.017 nM, the Ki [2] was 12.1 nM and the Ratio [3] was 710. It also gave a Ratio [4] of 11100 and a Ki [5] of 189 nM.

Work on COC(=O)C1C2CCC(CC1c1ccc(-c3cccs3)cc1)N2 (configuration not stated) yielded a Ki [1] of 0.11 nM, a Ki [2] of 12.2 nM and a Ratio [3] of 111. For the same compound, the Ratio [4] was 685 and the Ki [5] was 75.3 nM.

In the case of COC(=O)C1C(c2ccc(-c3ccc(Br)s3)cc2)CC2CCC1N2C (configuration not stated), the Ki [1] is reported as 0.38 nM, the Ki [2] is reported as 6.43 nM and the Ratio [3] is reported as 17. It also gave a Ratio [4] of 853 and a Ki [5] of 324 nM.

For COC(=O)C1C(c2ccc(I)cc2)CC2CCC1N2C (configuration not stated), the Ratio [3] was 2.1 and the Ratio [4] was 6.1.

COC(=O)C1C(c2ccc(-c3ccc(Cl)s3)cc2)CC2CCC1N2C (configuration not stated) showed a Ki [1] of 0.64 nM, a Ki [2] of 4.42 nM and a Ratio [3] of 6.9. The Ratio [4] was 486 and the Ki [5] was 311 nM.
